Experimental findings from patent US5726162A (priority 1996, dated 1998) are described below.

Molecules are shown by their SMILES.

The subject of test [1] is fungal inoculum. Briefly: organism not typed. Type of test: cell-based. Conditions: read-out: % growth inhibition.
The test system of test [2] is Magnaporthe grisea (Pyricularia oryzae). Briefly: whole plant or invertebrate. It counts as in vivo, Magnaporthe grisea (Pyricularia oryzae) on M201 rice plants. Conditions: Pyricularia oryzae, 144 h, read-out: % Control RB.
For test [3], the system named is Thanatephorus cucumeris (Rhizoctonia solani). Briefly: In vivo test b) Rice Sheath Blight (RSB), 24 hour preapplication protectant, % control. Conditions: protectant; for pest or weed control at 200 ppm: read-out: % Control RSB. The method, then:
Compounds were tested at 200 ppm as a twenty-four hour preapplication protectant test prior to inoculation.
b) Rice Sheath Blight (RSB)
Thanatephorus cucumeris (Rhizoctonia solani) mycelia were grown for six days in potato dextrose broth in shake culture. Drained mycelial mats were blended with an approximately equal weight of rice flour and five parts water. This slurry was dispensed onto the soil surface of pots containing rice seedlings previously treated with experimental compounds. The plants were placed in a mist chamber at 25°-28° C. for 48 hours. Following two more days at 25° C. and 70-90% relative humidity the plants were evaluated for percent disease control compared to check plants.

On to `O=C1CCC(c2ccc(Cl)cc2)=NN1CC#Cc1ccccc1` [Compound 17], for which the inhibition – broadly, the change of the read-out against control, counted positive when it falls – at 25 ppm in test [1] came to 91.9%. In addition, the pest or weed control at 200 ppm in test [2] was 0%; in test [3], 80%.
`CC#CCN1N=C(c2ccc(C)cc2)CCC1=O` [Compound 18]: the inhibition at 5 ppm in test [1] worked out at 88.4%. For the same molecule, the pest or weed control at 200 ppm in test [2] and in test [3] was 0% in each case.
For the molecule `O=C1CCC(c2ccc(Cl)c(Cl)c2)=NN1CCCO` [Compound 5], in test [1], the inhibition at 100 ppm was determined as 75%. Besides, the pest or weed control at 200 ppm in test [2] was determined as 0%; in test [3], 50%.
With `CCC#CCn1cc(-c2ccc(Cl)cc2)ccc1=O` [Compound 145, 5-(4-chlorophenyl)-1-(2-pentyn-1-yl)-2-pyridinone], in test [1], the inhibition at 1 ppm was determined as 96%. In test [2], the pest or weed control at 200 ppm was 95%. Moreover, the pest or weed control at 100 ppm in test [3] (100 ppm) is 0%.
Turning to `CC#CCN1N=C(c2ccc(OC)c(F)c2)CCC1=O` [Compound 20], the inhibition at 10 ppm in test [1] stood at 100%. Moreover, the pest or weed control at 200 ppm in test [2] and in test [3] was 0% each time.
As for `CC#CCN1N=C(c2ccc(Cl)cc2)CCC1=O` [Compound 1], in test [1], the inhibition at 5 ppm came out at 92.7%. The pest or weed control at 200 ppm in test [2] was determined as 90%; in test [3], 0%.
As for `CC(C)(C)N1N=C(c2ccc(Cl)cc2)CCC1=O` [Compound 15, 6-(4-chlorophenyl)-4,5-dihydro-2-t-butylpyridazinone], the inhibition at 50 ppm in test [1] amounted to 37.1%. Besides, the values for the pest or weed control at 200 ppm in test [2] and in test [3] were 0% and 50%, respectively.
For the molecule `CC#CCn1nc(-c2ccc(Cl)cc2)ccc1=O` [Compound 108], the inhibition at 5 ppm in test [1] is 100%. Moreover, the pest or weed control at 200 ppm is 95% in test [2] and 50% in test [3].
As to `CC#CCN1N=C(c2ccc(OC)cc2)CCC1=O` [Compound 11, 6-(4-methoxyphenyl)-2-(2'-butynyl)-4,5-dihydropyridazinone], in test [1], the inhibition at 10 ppm was 87.7%. In addition, the pest or weed control at 200 ppm in test [2] and in test [3] was 0% in each case.
On to `CC#CCN1N=C(c2ccc(Cl)cc2Cl)CCC1=O` [Compound 19], for which the inhibition at 100 ppm in test [1] amounted to 96.8%. Further, the pest or weed control at 200 ppm in test [2] was found to be 50%; in test [3], 0%.
Regarding `C#CCN1N=C(c2ccc(Cl)cc2)CCC1=O` [Compound 6, 6-(4-chlorophenyl)-2-propargyl-4,5-dihydropyridazinone], the inhibition at 100 ppm in test [1] worked out at 91.5%. In addition, the pest or weed control at 200 ppm in test [2] and in test [3] was 0% throughout.
On to `CCC(O)CN1N=C(c2ccc(Cl)cc2)CCC1=O` (stereo not drawn) [Compound 4], for which, in test [1], the inhibition at 100 ppm was 26.7%. Besides, the pest or weed control at 200 ppm in test [2] and in test [3] was 0% throughout.
In the case of `CCCCN1N=C(c2ccc(Cl)cc2)CCC1=O` [Compound 7], in test [1], the inhibition at 100 ppm came out at 94.4%. The pest or weed control at 200 ppm in test [2] and in test [3] was 0% in each case.
`CCC#CCn1cc(-c2ccc(Cl)cc2)cnc1=O` [Compound 150]: the inhibition at 50 ppm in test [1] came out at 48.2%. Further, the values for the pest or weed control at 200 ppm in test [2] and in test [3] were 99% and 95%, respectively.
